{
  "source": "patent US7713943B2",
  "about": "“Further use of protein kinase N beta” (Silence Therapeutics Aktiengesellschaft (AG), priority 2002, dated 2010)",
  "key": {"[1]": {"test_system": "MPB (myelin basic protein)", "assay": "In vitro kinase activity of protein kinase N beta derivatives, MPB/MBP phosphorylation", "assay_type": "biochemical", "parameters": "key to Activity: +: active; −: inactive; !: no “hyper activation” was observed as one might have expected from comparable mutations in other kinases (Morgan and Debond, 1994)", "conditions": "for Activity: MPB substrate, FIG. 9", "protocol": "The respective fragments were transiently epressed in HeLa cells. Their relative expression was determined by Western-blot analysis of Hela cell extracts using an anti-PKNbeta antibody.\nMPB is myelin basic protein which is a standard in vitro phosphorylation substrate.\nAs may be taken from FIG. 9A apart from the full-length protein kinase N beta only the kinase domain in its otherwise wildtype form is active in phosphorylating MPB.\nThe PKNbeta-derived molecules were immune-precipitated from the cell extracts shown in FIG. 10 by using anti-tag antibodies. The immune precipitates were washed as described (Klippel et al., 1996) and divided in two halfs. One half was incubated with 5 μg MBP (UBI) as a phosphorylation substrate, 4 mM MgCl2 and gamma ^32P-ATP in a buffered solution for 10 min at room temperature. In addition, phosphatase inhibitors and inhibitors against unspecifically acting kinases were added as in Klippel et al., 1998. Incorporation of radioactive phosphate was detected by autoradiography after separating the reaction products by 16% SDS-PAGE (FIG. 11B)."}, "[2]": {"test_system": "GST-GSK3 fusion protein", "assay": "Non-radioactive in vitro kinase assay, anti-phospho GSK3alpha Western blot", "assay_type": "biochemical", "conditions": "immune precipitates, 200 μM rATP, FIG. 11A", "protocol": "The second half of the immune precipitates was incubated with 1 μg GST-GSK3 fusion protein (Cell Signaling Technology) as a phosphorylation substrate in the presence of 200 μM rATP. The reaction mixture was subsequently analyzed by 8-16% gradient SDS-PAGE and Western blotting using the anti-phospho GSK3alpha antibody (Cell Signaling Technology) (FIG. 11A).\nThe specificity of the in vitro phosphorylation reactions was controlled by analyzing kinase defective variants (e.g. containing mutations in the ATP binding site, see above) in parallel to active protein.\nIn a first step, the suitability of a non-radioactive screening formate was determined, whereby the various protein kinase N beta derivatives as already discussed in connection with example 10, were used for phosphorylating a suitable substrate. Such substrate may, for example, be MBP or a GSK3 peptide which is typically immobilised on a suitable carrier such as agarose- or sepharose beads or on plastic surfaces. In the present case and as depicted in FIG. 11A, the substrate is a GSK3-derived peptide fused to paramyosin. […] The phosphorylated substrate in the present case was detected by anti-phospho GSK3 alpha antibody (mentioned above)."}, "[3]": {"test_system": "endogenous PKN-beta", "assay": "Expression of endogenous PKN-beta after LY294002, Western blot, PC-3 cells", "assay_type": "cell-based, human", "protocol": "(§1) PC-3 cells were cultivated as described in example 1 herein. Said PC-3 cells are PTEN −/−. HeLa cells were obtained from the American Type Culture Collection (ATCC) and grown as described in Sternberger et al. (2002). Transfections were carried out in 10-cm plates (at 30% to 50% confluency) using Fugene 6 (Roche, Nutley, N.J.) according to the manufacturer's instructions. Cultivated cells were trypsinated and harvested following stopping the trypsin effect by medium. Both cell types, i.e. PC-3 cells and HeLa cells were treated for the indicated times with 10 μM LY294002 or DMSO, whereby DMSO was used as the solvent for LY294002 and, because of this, as negative control. The resulting extracts were fractionated by SDS-PAGE and subsequently analysed by Western-blotting. The levels of the indicated proteins such as p110, which served as a loading control, endogenous PKN-beta and phosphorylated Akt were detected using the respective antibodies. Phosphorylated Akt (P*-Akt) serves as a control for the efficacy of the LY294002-mediated treatment."}, "[4]": {"test_system": "PKNbeta", "assay": "Kinase activity and phosphorylation of recombinant PKN-beta from LY294002-treated HeLa cells", "assay_type": "cell-based", "description": "Recombinant wildtype PKN-beta or derivatives of PKN-beta (as described in FIGS. 10-11) were transiently expressed in HeLa cells. Said derivatives were PKN-beta derivative TA and derivative KE as described in example 10 herein. The PKN-beta was modified in each case by a myc-tag as described above which allowed the precipitation of PKN-beta and its derivatives using an anti-Myc antibody.\nFor the assessment of the activity of PKN-beta an in vitro kinase activity using the immune precipitates was carried out as described above. Half of the precipitates were subjected to the in vitro kinase reaction, the second half was analyzed by Western-blotting using anti-phospho-PRK antibodies. The filter was stripped and reprobed using the anti-PKN-beta antiserum. Phospho-p70 S6 Kinase levels were analyzed from aliquots of cell lysates, that were withdrawn earlier, to confirm the efficacy of the LY294002 treatment even after only 3 h treatment. The anti-phospho p70 antibody was obtained from Cell signaling."}, "[5]": {"test_system": "endogenous PKN-beta", "assay": "Expression of endogenous PKN-beta after LY294002, Western blot, HeLa cells", "assay_type": "cell-based", "conditions": "10 μM LY294002, 48 h", "protocol": "as §1"}, "[6]": {"conditions": "transient overexpression in HeLa cells"}, "[7]": {"conditions": "LY294002 treatment, anti-phospho-PRK antibody"}},
  "note": "“Also recorded” adds a separate entry of the source. Marks after values point to notes of the source that are not given here.",
  "data": [
    {"compound": "TD718: kinase domain derivative, threonine at position 718 changed to aspartic acid", "values": [
      {"measurement": "Activity", "setting": "[1]; [6]", "result": "−*!"}
    ]},
    {"compound": "Kinase domain comprising amino acids 535-889: protein kinase N beta derivative, kinase domain comprising amino acids 535-889", "values": [
      {"measurement": "phosphorylation of GSK3-derived substrate", "setting": "[2]", "result": "suitable to phosphorylate the substrate; also recorded: show activity"},
      {"measurement": "phosphorylation of MBP, 32P incorporation", "setting": "[1]; immune precipitates, gamma 32P-ATP, autoradiography, FIG. 11B", "result": "show activity"},
      {"measurement": "phosphorylating MPB (FIG. 9A)", "setting": "[1]; [6]", "result": "active"},
      {"measurement": "Activity", "setting": "[1]; [6]", "result": "+*"}
    ]},
    {"compound": "TE718: kinase domain derivative, threonine at position 718 changed to glutamic acid", "values": [
      {"measurement": "Activity", "setting": "[1]; [6]", "result": "−*!"}
    ]},
    {"compound": "TA718: kinase domain derivative, threonine at position 718 changed to alanine", "values": [
      {"measurement": "Activity", "setting": "[1]; [6]", "result": "−*"}
    ]},
    {"compound": "O=c1cc(N2CCOCC2)oc2c(-c3ccccc3)cccc12", "note": "[LY294002, 2-(4-morpholinyl)8-phenylchromone]", "values": [
      {"measurement": "endogenous PKNbeta expression (protein level)", "setting": "[3]; 10 μM LY294002, 24 h", "result": "visible reduction"},
      {"measurement": "endogenous PKNbeta expression (protein level)", "setting": "[3]; 10 μM LY294002, 48 h", "result": "further reduced"},
      {"measurement": "kinase activity of PKNbeta, phosphorylation of MBP", "setting": "[4]; 3 h of LY294002 treatment", "result": "visible"},
      {"measurement": "kinase activity of PKNbeta, phosphorylation of MBP", "setting": "[4]; 24 h of LY294002 treatment", "result": "almost completely inhibited"},
      {"measurement": "kinase activity of PKNbeta, phosphorylation of MBP", "setting": "[4]; LY294002 treatment of HeLa cells prior to lysis, FIG. 13", "result": "strong inhibition"},
      {"measurement": "phosphorylation of PKNbeta at position 718", "setting": "[4]; [7]", "result": "compromised"},
      {"measurement": "phosphorylation status of PKN-beta derivative KE", "setting": "[4]; [7]", "result": "to some extent affected"},
      {"measurement": "endogenous PKNbeta expression (protein level)", "setting": "[5]", "result": "reduced amounts can be detected"}
    ]}
  ]
}
